Assay results from PubChem BioAssay AID179 (DTP/NCI, 2004).
Calls of active or inactive are those of the source.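 How the source made its calls: active means compounds giving half or more protection of infected cells from virus-caused growth loss, again on retest; inactive means the rest.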

Test system: CEM cells HIV-1 protection, formazan growth assay
Assay: NCI AIDS Antiviral Assay
Conditions: for IC50: measured here: growth of uninfected CEM cells
Description: The ability of compounds to protect human CEM cells from HIV-1 infection is measured as a screen for new compounds capable of inhibiting the HIV virus. Five concentrations of drug were tested on uninfected and infected cells and cell growth was measured using a soluble formazan assay. […] Compounds that provided at least 50% protection were retested. Compounds that provided at least 50% protection on retest were listed as moderately active. Compounds that reproducibly provided 100% protection were listed as confirmed active. […] Note that the inability to provide protection could be due to toxicity.

| SMILES | outcome | EC50 [µM] | IC50 [µM] |
| --- | --- | --- | --- |
| CCOc1ccccc1C1N2CCN(CC2)C(c2ccccc2OCC)N2CCN1CC2 (stereo not given) | inactive | – | – |
| CCC12CCCN(Cc3ccccc3)C1c1c(n(C)c3ccccc13)C(C(=O)OC)C2 (stereo not given) | – | > 32.4 | > 32.4 |
| C#CC1(O)CCC2C3CCC4=Cc5oncc5CC4(C)C3CCC21C (stereo not given) | – | > 200 | 39.8 |
| Cn1c(=O)ccc2ccc(N(CCO)CCO)nc21 | – | > 200 | > 200 |
| ClC1c2ccccc2C2(c3ccccc3)OOC1(c1ccccc1)O2 (stereo not given) | inactive | – | – |
| CC1(c2ccccc2)OC(=O)c2ccccc21 (stereo not given) | – | > 200 | > 100 |
| CC(C)(C)NNC(=O)/C(=C/c1ccc(Oc2ccc(Cl)c(Cl)c2)cc1)NC(=O)c1ccccc1 | – | > 5.5 | > 5.5 |
| COc1ccc(OC)c(/C=C(\C#N)c2ccc([N+](=O)[O-])cc2)c1 | – | > 200 | > 200 |
| CNc1ncnc2c1ncn2C1OC(CO)CC1F (stereo not given) | – | 158 | > 200 |
| COc1cc(C2c3cc4c(cc3OC(NNC(N)=O)C2C)OCO4)cc(OC)c1O (stereo not given) | – | > 200 | 0.525 |
| O=c1oc2ncccc2n1Cc1ccc([N+](=O)[O-])cc1 | – | > 200 | > 200 |
| COC(=O)N/N=C(\C)CC(=O)Nc1ccc(Cl)cc1 | – | > 91.2 | > 91.2 |
| O=C1c2ccccc2C(=O)N1CSS(=O)(=O)O | – | > 200 | > 200 |
| CCn1c(=O)c2c3cc(OC(C)=O)ccc3oc2c2ccc(OC(C)=O)cc21 | – | > 200 | 53.7 |
| O=C(CNc1ccccc1[N+](=O)[O-])Nn1c(-c2ccccc2)nc2ccccc2c1=O | – | > 200 | 11.7 |
| O=S(=O)(O)c1ccc2c(c1)Sc1cc(S(=O)(=O)O)ccc1O2 | inactive | – | – |
| Cc1cc2c(C(C)C)c(O)c(O)c(C=Nc3ccc(N=Nc4ccccc4)cc3)c2c(O)c1-c1c(C)cc2c(C(C)C)c(O)c(O)c(C=Nc3ccc(N=Nc4ccccc4)cc3)c2c1O | inactive | – | – |
| Cc1ccc(S(=O)(=O)Nc2cccc3c(=O)[nH]cnc23)cc1 | – | > 83.2 | 13.8 |
| C=C1C[C@]2(C)c3ccccc3NC(=O)[C@H]12 | – | 162 | > 200 |
| N#Cc1c2c(c(N)oc1=O)C(c1ccccc1)CC(=O)N2 (stereo not given) | – | > 200 | > 200 |
| COc1ccc(-n2cc3c(c2)C(=O)OC3=O)cc1OC | inactive | – | – |

| SMILES | outcome | EC50 [µM] | IC50 [µM] |
| --- | --- | --- | --- |
| COC1CC(C)C(OC)c2cc(O)cc(c2O)NC(=O)/C(C)=C/C=C\C(C)C(OC(N)=O)/C(C)=C\C(C)C1OC (stereo not given) | – | > 170 | 0.676 |
| CCN(CC)CCOc1ccc(N2C(=O)c3cccc4cc([N+](=O)[O-])cc(c34)C2=O)cc1 | – | > 200 | 2.45 |
| C[C@]1(O)CC[C@H]2[C@@H]3CC[C@H]4C[C@H](O)[C@@H]5C[C@]4(CO5)[C@H]3CC[C@@]21C | – | > 110 | > 110 |
| COc1cccc(N2C(=O)CC(Sc3ccccc3N)C2=O)c1 (stereo not given) | – | > 200 | > 200 |
| CCOC(=O)/C(N=Nc1ccc(-n2c(C)nc3ccc(Br)cc3c2=O)cc1)=C(/C)O | – | > 200 | 39.8 |
| COc1ccc(CSc2nc3ccccc3nc2-c2cccs2)cc1 | – | > 3.98 | > 3.98 |
| CC1(C)CN2Cc3cccc(n3)CN(CC(C)(C)[N-]C(=O)C(C)(OCc3ccccc3)C2)CC(C)(OCc2ccccc2)C(=O)[N-]1.[Cu+2] (stereo not given) | – | > 200 | 117 |
| C=C1c2nc3ccccc3n2C=C(c2ccc(Cl)cc2)N1c1ccc(OC)cc1 | – | > 200 | 18.6 |
| O=C(NCCCCNCCCNC(=O)c1cc(-c2ccccc2)nc2ccccc12)c1cc(-c2ccccc2)nc2ccccc12 | – | > 20 | 3.16 |
| CCSC1(SCC)CC(Cc2ccc(OC)cc2)N(C=NC(C)(C)C)C1 (stereo not given) | – | > 240 | 57.5 |
| Cc1cc2c(C(C)C)c(O)c(O)c(C=O)c2c(O)c1-c1c(C)c(N(c2cccc3ccccc23)c2cccc3ccccc23)c2c(C(C)C)c(O)c(O)c(C=O)c2c1O | inactive | – | – |
| OC1[C@H](O)CN(OCc2ccccc2)C[C@@H]1O (stereo not given in full) | – | > 200 | > 200 |
| CC(=O)OC[C@H]1CN(OC(C)=O)C[C@@H](n2cc(C)c(=O)[nH]c2=O)O1 | – | > 200 | > 200 |
| COc1cc2c(cc1O)C1(Cc3ccc4c(c3[C@@H]1O)OCO4)N(C)CC2 (stereo not given in full) | – | > 141 | > 141 |
| COC(=O)CC1NC(=O)C1C1(C)OCCO1 (stereo not given) | – | > 251 | > 251 |
| O=c1n(-c2ccccc2)c(=O)n2n1C1CCC2CC1 | – | > 200 | > 200 |
| O=C1C(NS(=O)(=O)c2ccccc2)=C(n2ccnc2)C(=O)c2ccccc21 | – | > 200 | 91.2 |
| O=C(NCCNCCNCCNC(=O)c1cc(-c2ccccc2)nc2ccccc12)c1cc(-c2ccccc2)nc2ccccc12 | – | > 20 | 3.31 |
| O=c1[nH]c(-c2ccccc2)nc2cc([N+](=O)[O-])c(/C(Cl)=C/c3ccccc3)cc12 | inactive | – | – |
| O=C(c1ccccc1)c1ccsc1C(=O)O | – | > 200 | > 200 |
| CCOC(=O)N1CCN(Cc2cc(=O)n3ccc(C)cc3n2)CC1 | – | > 200 | > 200 |

| SMILES | outcome | EC50 [µM] | IC50 [µM] |
| --- | --- | --- | --- |
| O=c1ccn(-c2ccccn2)c(=O)n1-c1ccccn1 | inactive | – | – |
| Cn1cc(NC(=O)[C@H]2CCC(N)=N2)cc1C(=O)NCCC(=N)N | inactive | – | – |
| CC(C)(C)OC(=O)CCCCCNC(=O)CCCCCNC(=O)CCC(CN(CC(=O)OCc1ccccc1)CC(=O)OCc1ccccc1)N(CC(=O)OCc1ccccc1)CC(=O)OCc1ccccc1 (stereo not given) | inactive | – | – |
| CC(=O)[O-].O=C([N-]/N=C\c1ccsc1)c1ccncc1.[Ni+2].[OH3+].c1cnc2c(c1)ccc1cccnc12 | – | > 200 | 47.9 |
| Cc1nc(Nc2ccccc2Cl)c2ccsc2n1 | inactive | – | – |
| CN1COCc2cc3cc4c(cc3nc21)OCCO4 | – | > 200 | 97.7 |
| Cc1cc2nn(C3CCCCO3)nc2cc1C (stereo not given) | – | > 200 | > 200 |
| Cn1c(=O)c2nsnc2n(C)c1=O | – | > 661 | > 661 |
| CC1=C(C(=O)Nc2ccccc2C)C(c2ccccc2O)C(C(=O)Nc2ccccc2C)=C(C)N1 | – | 9.55 | 15.5 |
| NS(=O)(=O)c1ccc(NC(=O)/C=C/C(=O)O)cc1 | – | > 200 | > 200 |
| O=C1C[C@@H](Sc2ccccc2)C2(OCCO2)C2ON3CCCC[C@H]3[C@H]12 (stereo not given in full) | – | > 200 | 1.82 |
| CCN(CC)C1CCC(C2c3cc4c(cc3OC(N3CCOCC3)C2C)OCO4)CC1 (stereo not given) | – | > 100 | 5.89 |
| N#C/C(=C1/c2cc([N+](=O)[O-])ccc2-c2c1cc([N+](=O)[O-])cc2[N+](=O)[O-])N1CCCCC1 | – | > 200 | > 200 |
| CSc1ncnc2c1ncn2CCC(=O)O | – | > 200 | > 200 |
| COc1cc2c(cc1OC)C13CCN4CC5=CCOC6CC(=O)N2C1C6C5CC43 (stereo not given) (tested in a mixture with another compound) | – | > 200 | 53.7 |
| O=CNc1ccc(S(=O)(=O)c2ccc(NC=O)cc2)cc1 | inactive | – | – |
| CC1(C)SC(CCCCCCCCCCCNC2=NCCCCCCCCCCC2)=N[C@@H]1C(=O)O | – | > 67.6 | 38 |
| O=c1ccn2c(n1)OC1C(O)C(CO)OC12 (stereo not given) | – | > 200 | > 200 |
| O=C1CS(=O)(=O)CN1N1CS(=O)(=O)CC1=O | – | > 200 | 110 |
